In the oligonucleotide strings, read from the 5' end, every base follows the letter of its sugar. An asterisk marks phosphorothioate; unmarked linkages are phosphodiester. Other units and linkages are bracketed, terminal groups are in braces. A string of capitals states the bases alone. {NAG37} = tridentate N-acetyl-galactosamine targeting ligand, structure (NAG37)s; [invAb] = inverted abasic unit; m = 2'-O-methyl; f = 2'-fluoro
What was measured:
ANGPTL3 protein [1] = experiment: Example 4: serum ANGPTL3 protein by ELISA in mice; format: in vivo, C57bl/6 mice; conditions: serum, female C57bl/6 mice
Description: (§1) To assess the in vivo activity of ANGPTL3 RNAi agents that are designed to target additional positions on the ANGPTL3 gene, six- to eight-week-old female C57bl/6 mice were used. Pre-dose serum samples were taken at day −1 after a four hour fast. At day 1, each mouse was given a single subcutaneous administration of 200 μl containing either 1 mg/kg (mpk) or 0.5 mg/kg (mpk) of an ANGPTL3 RNAi agent in D5W (dextrose in 5% water), or control (D5W) with no RNAi agent, according to the dosing groups recited in Table 17.
(§2) Each of the RNAi agents included a modified sequence and an N-acetyl-galactosamine-containing targeting ligand conjugated to the 5′ terminal end of the sense strand. (See Tables 3, 4, and 5 for modified sequences and targeting ligand structures). The injections were performed between the skin and muscle (i.e. subcutaneous injections) into the loose skin over the neck and shoulder area. Three (3) mice in each group were tested (n=3). Serum was collected on days 8, 15, 22, 29, and day 43 (Groups 1-3, 9, and 11-13 only). Mice were fasted for four hours prior to each collection. ANGPTL3 protein levels in serum were measured by ELISA assay (R&D Systems), according to the manufacturer's recommendations. Triglycerides, high-density lipoprotein (HDL), and total cholesterol in serum were measured on a Cobas® Integra 400 (Roche Diagnostics), according to the manufacturer's recommendations.
(§3) The ANGPTL3 protein levels, triglyceride levels, HDL levels, and total cholesterol levels for each animal were normalized. For normalization, the level of ANGPTL3 protein, triglyceride, HDL, and total cholesterol, respectively, for each animal at a time point, was divided by the pre-treatment level of expression in that animal (in this case at day −1) to determine the ratio of expression “normalized to pre-treatment.” Expression at a specific time point was then normalized to the D5W control group by dividing the “normalized to pre-treatment” ratio for an individual animal by the mean “normalized to pretreatment” ratio of all mice in the D5W control group.

ANGPTL3 gene [2] = experiment: Example 4: serum triglycerides in mice; format: in vivo
Description: as §1, §2, §3

ANGPTL3 gene [3] = experiment: Example 4: serum HDL in mice; format: in vivo, C57bl/6 mice
Description: as §1, §2, §3

ANGPTL3 gene [4] = experiment: Example 4: serum LDL in mice; format: in vivo, C57bl/6 mice; conditions: serum, n=3
Description: as §1, §2, §3

ANGPTL3 protein [5] = experiment: Example 7: serum ANGPTL3 protein by ELISA in mice; format: in vivo, C57bl/6 mice; set-up: key: ratio: (level/pre-treatment day -1 level) ÷ mean of D5W control group
Method in brief: (§4)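 Female C57bl/6 mice (6–8 weeks, n=3) received a single subcutaneous dose of 0.5 mg/kg GalNAc-conjugated RNAi agent or D5W vehicle. Serum was taken after a 4 h fast at day −1 and days 8, 15, 22 and 29. ANGPTL3 was measured by ELISA and lipids by clinical analyzer, each normalised to the animal's pre-dose level and then to the D5W group mean.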

ANGPTL3 gene [6] = experiment: Example 7: serum triglycerides in mice; format: in vivo, C57bl/6 mice; set-up: key: ratio: (level/pre-treatment day -1 level) ÷ mean of D5W control group
Method in brief: as §4

ANGPTL3 gene [7] = experiment: Example 7: serum HDL in mice; format: in vivo; set-up: key: ratio: (level/pre-treatment day -1 level) ÷ mean of D5W control group; conditions: 0.5 mg/kg single SC injection day 1, female C57bl/6 mice, n=3, ratio to D5W control
Method in brief: as §4

ANGPTL3 gene [8] = experiment: Example 7: serum LDL in mice; format: in vivo; set-up: key: ratio: (level/pre-treatment day -1 level) ÷ mean of D5W control group; conditions: 0.5 mg/kg single SC injection day 1, female C57bl/6 mice, n=3, ratio to D5W control
Method in brief: as §4

[9] = Day 8, 0.5 mg/kg single SC injection on day 1, n=3
[10] = Day 15, 0.5 mg/kg single SC injection on day 1, n=3
[11] = Day 22, 0.5 mg/kg single SC injection on day 1, n=3
[12] = Day 29, 0.5 mg/kg single SC injection on day 1, n=3

## AD05308: RNAi agent duplex: antisense AM07003-AS, sense AM07002-SS (chain 1 mU*fG*mU*fUmGfAmAfUmUfAmAfUmGfUmCfCmAfUmGfG*mA; chain 2 {NAG37}*[invAb]*mUmCmCmAmUmGmGmAfCfAfUmUmAmAmUmUmCmAmAmCmA*[invAb])
ANGPTL3 protein [1]; Day 8, 0.5 mg/kg single subcutaneous dose on day 1
  Avg ANGPTL3 (Average ANGPTL3 Protein Normalized to Pre-Treatment and Control): 0.340
ANGPTL3 protein [1]; Day 8, 1.0 mg/kg single subcutaneous dose on day 1
  Avg ANGPTL3 (Average ANGPTL3 Protein Normalized to Pre-Treatment and Control): 0.299
ANGPTL3 protein [1]; Day 15, 0.5 mg/kg single subcutaneous dose on day 1
  Avg ANGPTL3 (Average ANGPTL3 Protein Normalized to Pre-Treatment and Control): 0.310
ANGPTL3 protein [1]; Day 15, 1.0 mg/kg single subcutaneous dose on day 1
  Avg ANGPTL3 (Average ANGPTL3 Protein Normalized to Pre-Treatment and Control): 0.298
ANGPTL3 protein [1]; Day 22, 0.5 mg/kg single subcutaneous dose on day 1
  Avg ANGPTL3 (Average ANGPTL3 Protein Normalized to Pre-Treatment and Control): 0.319
ANGPTL3 protein [1]; Day 22, 1.0 mg/kg single subcutaneous dose on day 1
  Avg ANGPTL3 (Average ANGPTL3 Protein Normalized to Pre-Treatment and Control): 0.252
ANGPTL3 protein [1]; Day 29, 0.5 mg/kg single subcutaneous dose on day 1
  Avg ANGPTL3 (Average ANGPTL3 Protein Normalized to Pre-Treatment and Control): 0.345
ANGPTL3 protein [1]; Day 29, 1.0 mg/kg single subcutaneous dose on day 1
  Avg ANGPTL3 (Average ANGPTL3 Protein Normalized to Pre-Treatment and Control): 0.322
ANGPTL3 protein [1]; Day 43, 0.5 mg/kg single subcutaneous dose on day 1
  Avg ANGPTL3 (Average ANGPTL3 Protein Normalized to Pre-Treatment and Control): 0.582
ANGPTL3 protein [1]; Day 43, 1.0 mg/kg single subcutaneous dose on day 1
  Avg ANGPTL3 (Average ANGPTL3 Protein Normalized to Pre-Treatment and Control): 0.643
ANGPTL3 gene [2]; Day 8, 0.5 mg/kg single subcutaneous dose on day 1, female C57bl/6 mice
  Avg TG (Average Triglycerides Normalized to Pre-Treatment and Control): 1.330
ANGPTL3 gene [2]; Day 8, 1.0 mg/kg single subcutaneous dose on day 1, female C57bl/6 mice
  Avg TG (Average Triglycerides Normalized to Pre-Treatment and Control): 0.749
ANGPTL3 gene [2]; Day 15, 0.5 mg/kg single subcutaneous dose on day 1, female C57bl/6 mice
  Avg TG (Average Triglycerides Normalized to Pre-Treatment and Control): 1.598
ANGPTL3 gene [2]; Day 15, 1.0 mg/kg single subcutaneous dose on day 1, female C57bl/6 mice
  Avg TG (Average Triglycerides Normalized to Pre-Treatment and Control): 1.164
ANGPTL3 gene [2]; Day 22, 0.5 mg/kg single subcutaneous dose on day 1, female C57bl/6 mice
  Avg TG (Average Triglycerides Normalized to Pre-Treatment and Control): 1.732
ANGPTL3 gene [2]; Day 22, 1.0 mg/kg single subcutaneous dose on day 1, female C57bl/6 mice
  Avg TG (Average Triglycerides Normalized to Pre-Treatment and Control): 1.152
ANGPTL3 gene [2]; Day 29, 0.5 mg/kg single subcutaneous dose on day 1, female C57bl/6 mice
  Avg TG (Average Triglycerides Normalized to Pre-Treatment and Control): 1.446
ANGPTL3 gene [2]; Day 29, 1.0 mg/kg single subcutaneous dose on day 1, female C57bl/6 mice
  Avg TG (Average Triglycerides Normalized to Pre-Treatment and Control): 1.021
ANGPTL3 gene [2]; Day 43, 0.5 mg/kg single subcutaneous dose on day 1, female C57bl/6 mice
  Avg TG (Average Triglycerides Normalized to Pre-Treatment and Control): 1.547
ANGPTL3 gene [2]; Day 43, 1.0 mg/kg single subcutaneous dose on day 1, female C57bl/6 mice
  Avg TG (Average Triglycerides Normalized to Pre-Treatment and Control): 0.994
ANGPTL3 gene [3]; [9]
  Avg HDL, normalized to pre-treatment and control: 1.007
ANGPTL3 gene [3]; Day 8, 1.0 mg/kg single SC injection on day 1, n=3
  Avg HDL, normalized to pre-treatment and control: 0.904
ANGPTL3 gene [3]; [10]
  Avg HDL, normalized to pre-treatment and control: 0.770
ANGPTL3 gene [3]; Day 15, 1.0 mg/kg single SC injection on day 1, n=3
  Avg HDL, normalized to pre-treatment and control: 0.801
ANGPTL3 gene [3]; [11]
  Avg HDL, normalized to pre-treatment and control: 0.921
ANGPTL3 gene [3]; Day 22, 1.0 mg/kg single SC injection on day 1, n=3
  Avg HDL, normalized to pre-treatment and control: 0.728
ANGPTL3 gene [3]; [12]
  Avg HDL, normalized to pre-treatment and control: 0.934
ANGPTL3 gene [3]; Day 29, 1.0 mg/kg single SC injection on day 1, n=3
  Avg HDL, normalized to pre-treatment and control: 0.824
ANGPTL3 gene [3]; Day 43, 0.5 mg/kg single SC injection on day 1, n=3
  Avg HDL, normalized to pre-treatment and control: 1.101
ANGPTL3 gene [3]; Day 43, 1.0 mg/kg single SC injection on day 1, n=3
  Avg HDL, normalized to pre-treatment and control: 1.096
ANGPTL3 gene [4]; Day 8, 0.5 mg/kg single SC injection on day 1
  Avg LDL, normalized to pre-treatment and control: 0.965
ANGPTL3 gene [4]; Day 8, 1.0 mg/kg single SC injection on day 1
  Avg LDL, normalized to pre-treatment and control: 0.842
ANGPTL3 gene [4]; Day 15, 0.5 mg/kg single SC injection on day 1
  Avg LDL, normalized to pre-treatment and control: 0.830
ANGPTL3 gene [4]; Day 15, 1.0 mg/kg single SC injection on day 1
  Avg LDL, normalized to pre-treatment and control: 0.688
ANGPTL3 gene [4]; Day 22, 1.0 mg/kg single SC injection on day 1
  Avg LDL, normalized to pre-treatment and control: 0.829
ANGPTL3 gene [4]; Day 29, 1.0 mg/kg single SC injection on day 1
  Avg LDL, normalized to pre-treatment and control: 0.897
ANGPTL3 gene [4]; Day 43, 1.0 mg/kg single SC injection on day 1
  Avg LDL, normalized to pre-treatment and control: 1.033
ANGPTL3 protein [5]; [9]
  Avg ANGPTL3, normalized to pre-treatment and control: 0.447
ANGPTL3 protein [5]; [10]
  Avg ANGPTL3, normalized to pre-treatment and control: 0.388
ANGPTL3 protein [5]; [11]
  Avg ANGPTL3, normalized to pre-treatment and control: 0.440
ANGPTL3 protein [5]; [12]
  Avg ANGPTL3, normalized to pre-treatment and control: 0.523
ANGPTL3 gene [6]; [9]
  Avg TG, normalized to pre-treatment and control: 0.836
ANGPTL3 gene [6]; [10]
  Avg TG, normalized to pre-treatment and control: 0.755
ANGPTL3 gene [6]; [11]
  Avg TG, normalized to pre-treatment and control: 0.839
ANGPTL3 gene [6]; [12]
  Avg TG, normalized to pre-treatment and control: 0.705
ANGPTL3 gene [7]; Day 8
  Avg HDL, normalized to pre-treatment and control: 0.750
ANGPTL3 gene [7]; Day 15
  Avg HDL, normalized to pre-treatment and control: 0.791
ANGPTL3 gene [7]; Day 22
  Avg HDL, normalized to pre-treatment and control: 0.846
ANGPTL3 gene [7]; Day 29
  Avg HDL, normalized to pre-treatment and control: 0.905
ANGPTL3 gene [8]; Day 8
  Avg LDL, normalized to pre-treatment and control: 0.710
ANGPTL3 gene [8]; Day 15
  Avg LDL, normalized to pre-treatment and control: 0.801
ANGPTL3 gene [8]; Day 22
  Avg LDL, normalized to pre-treatment and control: 0.933
ANGPTL3 gene [8]; Day 29
  Avg LDL, normalized to pre-treatment and control: 1.047

— patent US12729377B2, “RNAi agents and compositions for inhibiting expression of angiopoietin-like 3 (ANGPTL3), and methods of use” (Arrowhead Pharmaceuticals, Inc., priority 2017, dated 2026)
